Where two headings read alike, the source gives them in different places.
Legend:
[1] = test system: HePG2 hepatocarcinoma cells; assay type: cell-based; settings: human
Procedure: The cells were incubated for 2 h (37° C. and 5% CO2) and allowed to settle and attach. Compounds of interest or DMSO were diluted in DMEM and added at final compound concentrations of 1 μM, 10 μM, and 100 μM. Cells were incubated for 4 hours and 24 hours after which the media was discarded. Cells were lysed by adding 30 μL of passive lysis buffer (Promega) and shaken at RT for 15 min. Cell viability was determined by quantifying the ATP present in each well by adding 10 μL of CellTiter-Glo (Promega) per well and measuring the light output Spectramax L luminometer (Molecular Devices) with an integration time of one second per well. Data was normalized to 100% viability for cells receiving only DMSO without any concurrent compound.

ALK2 = target: T1, ALK2 (Homo sapiens, UniProt Q04771, Q207D); experiment: Thermal shift kinase assay ALK2; assay type: binding; settings: for ΔTmDiff.: ALK2 minus ALK5
T1 construct: His tag (TEV-cleavable) (N, cleaved yes); made in house; host or cells: Sf9 insect cells (baculovirus)
T1 sequence (Q04771 201-499 Q207D): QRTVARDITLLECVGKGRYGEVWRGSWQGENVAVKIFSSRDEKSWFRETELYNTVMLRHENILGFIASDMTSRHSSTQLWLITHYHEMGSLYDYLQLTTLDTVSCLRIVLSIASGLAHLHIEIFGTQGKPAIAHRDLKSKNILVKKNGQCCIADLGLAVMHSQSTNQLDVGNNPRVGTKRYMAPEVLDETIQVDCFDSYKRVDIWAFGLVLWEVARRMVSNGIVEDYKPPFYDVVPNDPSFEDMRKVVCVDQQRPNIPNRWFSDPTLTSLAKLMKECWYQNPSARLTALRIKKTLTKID
Procedure: Thermal melting experiments were performed using a Real Time PCR machine Mx3005p (Stratagene) with a protein concentration of 1-2 μM and 10 μM inhibitor as described by Niesen et al., Nat Protoc 2007, 2, 2212-21. Recombinant human kinases for DSF screening were prepared by SGC using the published methods of Sanvitale et al., PLoS One 2013, 8, e62721. The potency and selectivity of certain compounds of the invention based on thermal shift kinase and ligand induced transcriptional activity assays are shown in Table 2.

BMP6 = experiment: Ligand induced transcriptional activity assay BMP6 (BRE-Luc); assay type: cell-based; settings: cell-based signaling inhibition; read-out: BMP6 IC50

Row | Compound | Cell viability ([1]; 4 h, 1 μM) [%] | Cell viability ([1]; 4 h, 10 μM) [%] | Cell viability ([1]; 4 h, 100 μM) [%] | Cell viability ([1]; 24 h, 1 μM) [%] | Cell viability ([1]; 24 h, 10 μM) [%] | Cell viability ([1]; 24 h, 100 μM) [%] | ΔTmDiff. (ALK2) | IC50 (BMP6) [nM] | ΔTm at 10 µM (ALK2; 10 μM inhibitor) [°C]
1 | Cc1cn(-c2cc(NC(=O)c3ccc(C)c(Nc4nccc(-c5cccnc5)n4)c3)cc(C(F)(F)F)c2)cn1 [Nilotinib, reference compound] | 99 | 106 | 105 | 100 | 101 | 91 | – | – | –
2 | COc1ccc(-c2cc(-c3ccc(N4CCNCC4)cc3)cnc2N)cc1 [Compound 20, 3-(4-methoxyphenyl)-5-(4-(piperazin-1-yl)phenyl)pyridin-2-amine] | 106 | 102 | – | 108 | 104 | – | 4.5 | – | –
3 | COc1cc(-c2cc(-c3cccc(NS(C)(=O)=O)c3)cnc2N)cc(OC)c1OC [Compound 13, N-(3-(6-amino-5-(3,4,5-trimethoxyphenyl)pyridin-3-yl)phenyl)methanesulfonamide] | 97 | 100 | 95 | 101 | 98 | 82 | 0.9 | 60 ± 10 | –
4 | Nc1ncc(-c2ccc(N3CCNCC3)cc2)cc1-c1ccnc2ccccc12 [Compound 29] | 91 | 104 | 108 | 108 | 84 | – | 3.4 | 110 ± 50 | –
5 | CCN(CC)CCNC(=O)c1c(C)[nH]c(/C=C2\C(=O)Nc3ccc(F)cc32)c1C [Sunitinib, reference compound] | 97 | 107 | – | 96 | – | – | – | – | –
6 | CS(=O)(=O)CCNCc1ccc(-c2ccc3ncnc(Nc4ccc(OCc5cccc(F)c5)c(Cl)c4)c3c2)o1 [Lapatinib, reference compound] | 100 | 104 | 104 | 98 | 92 | 89 | – | – | –
7 | Nc1ncc(-c2ccc(N3CCNCC3)cc2)cc1-c1cccc2ncccc12 [Compound 31, 5-(4-(piperazin-1-yl)phenyl)-3-(quinolin-5-yl)pyridin-2-amine] | 96 | 103 | 117 | 105 | 95 | – | 4.2 | 170 ± 60 | –
8 | COc1cc(-c2cnn3cc(-c4ccc(N5CCNCC5)cc4)cnc23)cc(OC)c1OC [Compound 32, 3-(3,4,5-trimethoxyphenyl)-6-[4-(1-piperazinyl)phenyl]pyrazolo[1,5-a]pyrimidine] | 92 | 101 | – | 99 | – | – | 2.6 | 20 ± 2 | –
9 | COc1cc2ncnc(Nc3ccc(F)c(Cl)c3)c2cc1OCCCN1CCOCC1 [Gefitinib, reference compound] | 93 | 105 | 104 | 98 | 82 | 85 | – | – | –
10 | N#CC[C@H](C1CCCC1)n1cc(-c2ncnc3[nH]ccc23)cn1 [Ruxolitinib, reference compound] | 101 | 105 | 88 | 100 | 90 | – | – | – | –
11 | CC(C)Oc1cccc(-c2cc(-c3ccc(N4CCNCC4)cc3)cnc2N)c1 [Compound 21, 3-(3-isopropoxyphenyl)-5-(4-(piperazin-1-yl)phenyl)pyridin-2-amine] | 94 | 105 | – | 98 | 82 | – | 1.0 | – | –
12 | COc1cc(-c2cc(-c3ccc(N4CCNCC4)cc3)cnc2N)ccc1Cl [Compound 22, 3-(4-chloro-3-methoxyphenyl)-5-(4-(piperazin-1-yl)phenyl)pyridin-2-amine] | 96 | 104 | – | 101 | 81 | – | 2.7 | 160 ± 10 | –
13 | COc1cc(OC)cc(-c2cncc(-c3ccc(N4CCNCC4)cc3)c2)c1 [Compound 33, 1-(4-(5-(3,5-dimethoxyphenyl)pyridin-3-yl)phenyl)piperazine] | 95 | 100 | – | 101 | 92 | – | 4.7 | – | –
14 | Cc1nc(Nc2ncc(C(=O)Nc3c(C)cccc3Cl)s2)cc(N2CCN(CCO)CC2)n1 [Dasatinib, reference compound] | 94 | 107 | – | 87 | – | – | – | – | –
15 | COc1cccc(-c2cc(-c3ccc(N4CCNCC4)cc3)cnc2N)c1 [Compound 18, 3-(3-methoxyphenyl)-5-(4-(piperazin-1-yl)phenyl)pyridin-2-amine] | 98 | 101 | 106 | 103 | 100 | – | 3.8 | – | –
16 | COc1cc(-c2cc(-c3cccc(O)c3)cnc2N)cc(OC)c1OC [Compound K02288, 3-(6-Amino-5-(3,4,5-trimethoxyphenyl)pyridin-3-yl)phenol, reference compound] | 103 | 107 | 115 | 106 | 110 | – | 2.0 | 420 ± 170 | 13.2
17 | COc1cc(-c2cc(-c3cccc(N4CCNCC4)c3)cnc2N)cc(OC)c1OC [Compound 14, 5-(3-(piperazin-1-yl)phenyl)-3-(3,4,5-trimethoxyphenyl)pyridin-2-amine] | 96 | 110 | 99 | 99 | 93 | – | 0.8 | – | –
18 | Nc1ncc(-c2cccc(N3CCNCC3)c2)cc1-c1ccnc2ccccc12 [Compound 30, 5-(3-(piperazin-1-yl)phenyl)-3-(quinolin-4-yl)pyridin-2-amine] | 92 | 104 | – | 104 | 92 | 5 | 2.5 | 520 ± 60 | –
19 | C#Cc1cccc(Nc2ncnc3cc(OCCOC)c(OCCOC)cc23)c1 [Erlotinib, reference compound] | 96 | 107 | 108 | 99 | 84 | 84 | – | – | –
20 | COc1cc(-c2cc(-c3ccc(N4CCNCC4)cc3)cnc2N)ccc1C [Compound 23, 3-(3-methoxy-4-methylphenyl)-5-(4-(piperazin-1-yl)phenyl)pyridin-2-amine] | 95 | 101 | – | 98 | 86 | – | 3.8 | – | –
21 | CNc1ncc(-c2ccc(N3CCNCC3)cc2)cc1-c1cc(OC)c(OC)c(OC)c1 [Compound 24, N-methyl-5-(4-(piperazin-1-yl)phenyl)-3-(3,4,5-trimethoxyphenyl)pyridin-2-amine] | 95 | 105 | 86 | 101 | 86 | – | −0.5 | – | –
22 | Nc1ncc(-c2ccc(N3CCNCC3)cc2)cc1-c1ccc2c(c1)OCCO2 [Compound 19, 3-(2,3-dihydrobenzo[b][1,4]dioxin-6-yl)-5-(4-(piperazin-1-yl)phenyl)pyridin-2-amine] | 100 | 102 | 91 | 103 | 95 | – | 4.0 | 730 ± 100 | –
23 | CCCS(=O)(=O)Nc1ccc(F)c(C(=O)c2c[nH]c3ncc(-c4ccc(Cl)cc4)cc23)c1F [Vemurafenib, reference compound] | 103 | 100 | 102 | 95 | 77 | – | – | – | –
24 | COc1ccc(-c2cc(-c3ccc(N4CCNCC4)cc3)cnc2N)cc1OC [Compound 16, 3-(3,4-dimethoxyphenyl)-5-(4-(piperazin-1-yl)phenyl)pyridin-2-amine] | – | – | – | – | – | – | 4.3 | – | –
